This is an account of results in US8299103B2, “Compounds which selectively modulate the CB2 receptor” (Boehringer Ingelheim International GmbH, priority 2009, dated 2012).

Each structure is given as a SMILES string. Where two headings read alike, the source gives them in different places.

One test deals with T1, human CB1R (Homo sapiens, UniProt P21554).
T1 construct: host or cells: CHO cells
The experiment in a line: CB1R mediated modulation of cAMP synthesis. The format is cell-based. The method, then: C. CB1R Mediated Modulation of cAMP Synthesis:
Compounds of the invention are evaluated for their CB1 agonist or inverse agonistic activity in accordance with the following experimental method.
(§1) CHO cells expressing human CB1R (Euroscreen) are plated at a density of 5000 cells per well in 384 well plates and incubated overnight at 37° C. After removing the media, the cells are treated with test compounds diluted in stimulation buffer containing 1 mM IBMX, 0.25% BSA and 10 uM Forskolin. The assay is incubated for 30 minutes at 37° C. Cells are lysed and the cAMP concentration is measured using DiscoverX-XS cAMP kit, following the manufacturer's protocol. In this setting, agonists will decrease forskolin induced production of cAMP while inverse agonists will further increase forskolin induced production of cAMP. EC50 of agonists are calculated as follows. The maximal amount of cAMP produced by forskolin compared to the level of cAMP inhibited by 1 uM CP55940 is defined as 100%. The EC50 value of each test compound is determined as the concentration at which 50% of the forskolin-stimulated cAMP synthesis is inhibited. Data is analyzed using a four-parameter logistic model. (Model 205 of XLfit 4.0).

The next test concerns the target T2, human CB2R (Homo sapiens, UniProt P34972).
T2 construct: host or cells: CHO cells
The experiment in a line: CB2R mediated modulation of cAMP synthesis. The format is cell-based. The method, then:
B. CB2R Mediated Modulation of cAMP Synthesis:
Compounds of the invention are evaluated for their CB2 agonist or inverse agonistic activity in accordance with the following experimental method.
as §1, with “CB2R” for “CB1R”

Setting [1] is: CHO cells expressing human CB1R, inhibition of forskolin-stimulated cAMP synthesis, read-out: CB1 EC50.
Where [2] appears, read: CHO cells expressing human CB2R, inhibition of forskolin-stimulated cAMP synthesis, read-out: CB2 EC50.

T1 sequence (P21554 whole entry): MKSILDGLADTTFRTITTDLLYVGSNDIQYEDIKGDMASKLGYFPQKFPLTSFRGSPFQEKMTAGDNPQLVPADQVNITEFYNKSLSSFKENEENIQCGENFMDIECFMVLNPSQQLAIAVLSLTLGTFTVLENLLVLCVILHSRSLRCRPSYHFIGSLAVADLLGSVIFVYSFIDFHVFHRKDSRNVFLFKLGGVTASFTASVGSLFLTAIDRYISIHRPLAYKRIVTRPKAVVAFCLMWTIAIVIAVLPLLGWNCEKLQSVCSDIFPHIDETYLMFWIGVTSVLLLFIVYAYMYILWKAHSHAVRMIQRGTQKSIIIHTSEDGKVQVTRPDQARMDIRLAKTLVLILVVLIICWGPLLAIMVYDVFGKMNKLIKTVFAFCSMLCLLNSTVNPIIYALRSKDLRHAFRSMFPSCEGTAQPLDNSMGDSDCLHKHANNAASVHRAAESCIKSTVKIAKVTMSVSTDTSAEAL
T2 sequence (P34972 whole entry): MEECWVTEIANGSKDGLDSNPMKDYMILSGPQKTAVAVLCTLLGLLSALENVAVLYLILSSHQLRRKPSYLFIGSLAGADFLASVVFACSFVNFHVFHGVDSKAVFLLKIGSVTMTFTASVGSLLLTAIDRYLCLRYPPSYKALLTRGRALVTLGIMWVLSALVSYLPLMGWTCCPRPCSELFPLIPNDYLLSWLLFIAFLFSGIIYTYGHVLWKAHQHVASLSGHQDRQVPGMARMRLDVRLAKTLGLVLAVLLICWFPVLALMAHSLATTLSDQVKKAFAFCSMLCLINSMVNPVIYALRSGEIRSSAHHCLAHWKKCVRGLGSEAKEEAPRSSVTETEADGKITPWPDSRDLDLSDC

Broadly, the EC50 is the midpoint of the concentration-response curve. With `CN(CC1CC1)C(C)(C)C(=O)Nc1cc(C(C)(C)CO)no1`, the values for the EC50 on human CB1R and at human CB2R were 36 µM and 12 nM, respectively.
Regarding `CC(C)(NCCC1CCOCC1)C(=O)Nc1cc(C(C)(C)CO)no1`, the values for the EC50 on human CB1R (setting [1]) and on human CB2R (setting [2]) were above 50 µM and 113 nM, respectively.
With `CN(C(=O)CCC(F)(F)F)C(C)(C)C(=O)Nc1cc(C(C)(C)CO)no1`, the EC50 at human CB1R is above 50 µM; at human CB2R, 69 nM.
For `COCCOC(C)(C)c1cc(NC(=O)C(C)(C)N(C)C2CCOCC2)on1`, in that order: above 50 µM and 93 nM.
For `CN(C(=O)CC1CCOCC1)C(C)(C)C(=O)Nc1cc(C(C)(C)CO)no1`, in that order: above 50 µM and 27 nM.
In the case of `CN(CC1CCOCC1)C(C)(C)C(=O)Nc1nnc(C(C)(C)CO)s1`, the EC50 was above 50 µM at human CB1R (setting [1]) and 11 nM on human CB2R (setting [2]).
For `CC(C)(NC1CCN(S(C)(=O)=O)CC1)C(=O)Nc1cc(C(C)(C)CO)no1`, in that order: above 50 µM and 302 nM.
Take `CC(C)(N[C@H]1CC[C@@H](NS(C)(=O)=O)CC1)C(=O)Nc1cc(C(C)(C)CO)no1`: the EC50 at human CB1R is above 50 µM; on human CB2R, 42 nM.
For the compound `CN(C[C@H]1COCCO1)C(C)(C)C(=O)Nc1cc(C(C)(C)CO)no1`, the EC50 at human CB1R was above 50 µM; at human CB2R, 68 nM.
As to `CN(C1CCOCC1)C(C)(C)C(=O)Nc1cc(C(C)(C)CO)no1`, the EC50 at human CB1R is above 50 µM; on human CB2R, 56 nM.
For `CN(C1CCOCC1)C(C)(C)C(=O)Nc1cc(C2(CO)CCC2)no1`, in that order: above 50 µM and 66 nM.
As for `CC(C)(CO)c1cc(NC(=O)C(C)(C)N2CC[C@@H](O)C2)on1`, the EC50 at human CB1R (setting [1]) is above 50 µM; on human CB2R (setting [2]), 494 nM.
For the compound `CC(C)(CO)c1cc(NC(=O)C(C)(C)N2CCC(NS(C)(=O)=O)CC2)on1`, the values for the EC50 on human CB1R and at human CB2R were above 50 µM and 7.1 nM, respectively.
For `CN(C1CCOCC1)C(C)(C)C(=O)Nc1cc(C(C)(C)C2CCOCC2)no1`, in that order: above 50 µM and 44 nM.
Turning to `CC(C)(NCCCC(F)(F)F)C(=O)Nc1cc(C(C)(C)OCCO)no1`, the concentration giving a half-maximal response (EC50) is above 50 µM on human CB1R (setting [1]) and 109 nM on human CB2R (setting [2]).
As to `CN(C[C@@H]1COCCO1)C(C)(C)C(=O)Nc1cc(C(C)(C)CO)no1`, the EC50 on human CB1R is above 50 µM; at human CB2R, 40 nM.
On to `COCC(C)(C)c1cc(NC(=O)C(C)(C)NC2CCOCC2)on1`, for which the EC50 at human CB1R (setting [1]) is above 20 µM; at human CB2R (setting [2]), 313 nM.
As for `CN(CC1CCOCC1)C(C)(C)C(=O)Nc1cc(C2(O)CC2)no1`, the EC50 at human CB1R was above 50 µM; at human CB2R it was 13 nM.
In the case of `CN(C[C@H]1CCCN(S(C)(=O)=O)C1)C(C)(C)C(=O)Nc1cc(C(C)(C)CO)no1`, the EC50 is above 50 µM on human CB1R (setting [1]) and 126 nM on human CB2R (setting [2]).
`CC[C@H](C)N(C)C(C)(C)C(=O)Nc1cc(C(C)(C)CO)no1`: the figures for the EC50 on human CB1R (setting [1]) and on human CB2R (setting [2]) were above 50 µM and 220 nM, respectively.
As for `CN(CC1CCOC1)C(C)(C)C(=O)Nc1cc(C(C)(C)CO)no1` (centres unmarked), the EC50 is above 50 µM at human CB1R and 29 nM on human CB2R.
As to `COCC(C)(C)c1cc(NC(=O)C(C)(C)NCC2CCOCC2)no1`, the EC50 is above 20 µM on human CB1R (setting [1]) and 132 nM at human CB2R (setting [2]).
For `CC(C)N(C)C(C)(C)C(=O)Nc1cc(C(C)(C)CO)no1`, in that order: above 50 µM and 244 nM.
As to `CC(C)(NCCCC(F)(F)F)C(=O)Nc1cc(C2(CO)CCC2)no1`, the EC50 was above 50 µM on human CB1R and 54 nM on human CB2R.
Consider `CC(C)(CO)c1cc(NC(=O)C(C)(C)N2CCCCC2)on1`, for which the values for the EC50 on human CB1R and at human CB2R were 22 µM and 28 nM, respectively.
For `CN(C1CCOCC1)C(C)(C)C(=O)Nc1cc(C(C)(C)COCCO)no1`, in that order: 37.6 µM and 15 nM.
Take `CC(C)(NC1CCC(NS(C)(=O)=O)CC1)C(=O)Nc1nnn(C(C)(C)C)n1` (centres unmarked): the EC50 was above 50 µM on human CB1R (read-out: CB1 EC50, CHO cells expressing human CB1R, inhibition of forskolin-stimulated cAMP synthesis) and 33 nM at human CB2R (read-out: CB2 EC50, CHO cells expressing human CB2R, inhibition of forskolin-stimulated cAMP synthesis).
With `CC(C)(NCCCC(F)(F)F)C(=O)Nc1cc(C(C)(C)CO)no1`, the EC50 at human CB1R is above 50 µM; at human CB2R, 31 nM.
For `Cc1ncc(C(C)(C)c2cc(NC(=O)C(C)(C)N(C)C3CCOCC3)on2)o1`, the EC50 worked out at 20.8 µM at human CB1R and 15 nM at human CB2R.
For the compound `COCCOCC(C)(C)c1cc(NC(=O)C(C)(C)N(C)C2CCOCC2)on1`, the figures for the EC50 at human CB1R (setting [1]) and on human CB2R (setting [2]) were above 50 µM and 246 nM, respectively.
On to `Cc1ncc(C(C)(C)c2cc(NC(=O)C(C)(C)NC3CCN(S(C)(=O)=O)CC3)on2)s1`, for which the EC50 is above 50 µM at human CB1R (setting [1]) and 195 nM on human CB2R (setting [2]).
For `CC(C)(N[C@H]1CC[C@@H](O)CC1)C(=O)Nc1cc(C(C)(C)CO)no1`, in that order: above 50 µM and 300 nM.
For `COCC(C)(C)c1cc(NC(=O)C(C)(C)NC2CCOCC2)no1`, in that order: above 20 µM and 337 nM.
For `CC(C)(NCC1CCOCC1)C(=O)Nc1cc(C(C)(C)CO)no1`, in that order: above 50 µM and 374 nM.
Take `CN(C(=O)C[C@H]1CCOC1)C(C)(C)C(=O)Nc1cc(C(C)(C)CO)no1`: the concentration giving a half-maximal response (EC50) was above 50 µM on human CB1R and 25 nM at human CB2R.
With `CN([C@H]1CCN(S(C)(=O)=O)C1)C(C)(C)C(=O)Nc1cc(C(C)(C)CO)no1`, the values for the EC50 on human CB1R and at human CB2R were above 50 µM and 28 nM, respectively.
The compound `CN(C1CC1)C(C)(C)C(=O)Nc1cc(C(C)(C)CO)no1` yielded an EC50 on human CB2R of 446 nM.
In the case of `CN(C(=O)CCCC(F)(F)F)C(C)(C)C(=O)Nc1cc(C(C)(C)CO)no1`, the EC50 at human CB1R worked out at 32.1 µM; on human CB2R it was 27 nM.
For `C[C@H](O)C(C)(C)c1cc(NC(=O)C(C)(C)N(C)C2CCOCC2)on1`, in that order: 44.7 µM and 28 nM.
In the case of `CN(C1CCOCC1)C(C)(C)C(=O)Nc1cc(C2(CO)CCCC2)no1`, the EC50 at human CB1R came to 21.5 µM; at human CB2R, 21 nM.
For `CN([C@@H]1CCN(S(C)(=O)=O)C1)C(C)(C)C(=O)Nc1cc(C(C)(C)CO)no1`, in that order: above 20 µM and 1.7 nM.
Turning to `CC(C)(NCC1CCOCC1)C(=O)Nc1cc(C(C)(C)COC2CCCCO2)no1` (centres unmarked), the results for the EC50 on human CB1R (setting [1]) and on human CB2R (setting [2]) were above 50 µM and 201 nM, respectively.
